What was measured:
[1] = tested on: glacial acetic-acid-induced gastric ulcer; test: Macroscopic gastric ulcer assay in the glacial acetic-acid-induced gastric ulcer model; format: in vivo, rat
Procedure: The gastric ulcer index (UI) was the total area of ulcer. The gastroprotection (%) was calculated and used for macroscopic gastric ulcer assay.

[2] = tested on: glacial acetic-acid-induced gastric ulcer; test: Histopathological observation (H&E) of gastric mucosa, glacial acetic-acid-induced gastric ulcer; format: in vivo, rat; conditions: treatment with LSZ compared to the model group
Procedure: Cross-sections with a thickness of 4 µm were then papered for hematoxylin and eosin (H&E) staining. All specimens were assessed under a light microscopy.

VEGF [3] = test: Immunohistochemistry evaluation of gastric tissue for VEGF; format: in vivo, rat; conditions: the LSZ group, p < 0.01
Procedure: (§1) Gastric tissues were post fixed in 4% paraformaldehyde overnight at 4 °C before routine paraffin sections (4 μm) were prepared for immunohistochemical staining. Paraffin-embedded slices of tissues were incubated overnight at 4 °C with primary rabbit anti-VEGF and anti-COX-2 antibody (1:200, Thermo). After rinsing, sections were incubated in biotinylated goat anti-rabbit IgG (1:200, Maixin) at 37 °C for 30 min and were subsequently incubated in streptavidin-peroxidase conjugate (1:200, Maixin) at 37 °C for 30 min. The sections were developed with 3,3′-diaminobenzidine (DAB) in a chromogen solution and counter-stained with hematoxylin. Images were obtained using an Olympus BX-61microscope (Tokyo, Japan).

COX-2 [4] = test: Immunohistochemistry evaluation of gastric tissue for COX-2; format: in vivo, rat; conditions: the LSZ group, p < 0.01
Procedure: as §1

VEGF [5] = test: Western blotting determination of gastric tissue for VEGF; format: in vivo, rat; conditions: LSZ versus model group, p < 0.01
Procedure: (§2) The homogenate was centrifuged at a force of 12,000 g for 30 min at 4 °C and protein qualification was carried out using a BCA kit. The total protein extract (25 μg per lane) was separated on SDS-polyacrylamide gels and transferred onto PVDF membranes. Nonspecific binding sites on the membrane were blocked by PBS containing 0.1% Tween-20 with 5% bovine serum albumin, which was followed by incubation with rabbit polyclonal primary antibodies against VEGF and COX-2 and β-actin overnight at 4 °C. Immunoreactive bands were visualized using the enhanced chemiluminescent kit. Bands were measured using the Quality One analysis software and the density of each band was normalized to β-actin.

COX-2 [6] = test: Western blotting determination of gastric tissue for COX-2; format: in vivo, rat; conditions: LSZ versus model group, p < 0.01
Procedure: as §2

[7] = Stability of lansoprazole in dog plasma (method validation); format: in vitro ADME; conditions: n = 3
Excerpt: The method was fully validated in accordance with the US Food and Drug Administration (FDA) guidelines. Specificity, linearity, LLOQ, precision, accuracy, recovery, matrix effect and stability were all experimentally investigated.

[8] = capsules containing enteric-coated granules; cited from earlier work
SOD = test: Measurement of SOD level in gastric ulcer rats; conditions: 2.7 mg/kg, seven consecutive days, mean ± SD, n = 6
H^+-K^+-ATP enzyme = H^+-K^+-ATP enzyme (Rattus norvegicus, UniProt P09626); test: Measurement of H+-K+-ATP enzyme activity in gastric ulcer rats; conditions: 2.7 mg/kg, seven consecutive days, mean ± SD, n = 6
Chain of H^+-K^+-ATP enzyme (P09626 whole entry): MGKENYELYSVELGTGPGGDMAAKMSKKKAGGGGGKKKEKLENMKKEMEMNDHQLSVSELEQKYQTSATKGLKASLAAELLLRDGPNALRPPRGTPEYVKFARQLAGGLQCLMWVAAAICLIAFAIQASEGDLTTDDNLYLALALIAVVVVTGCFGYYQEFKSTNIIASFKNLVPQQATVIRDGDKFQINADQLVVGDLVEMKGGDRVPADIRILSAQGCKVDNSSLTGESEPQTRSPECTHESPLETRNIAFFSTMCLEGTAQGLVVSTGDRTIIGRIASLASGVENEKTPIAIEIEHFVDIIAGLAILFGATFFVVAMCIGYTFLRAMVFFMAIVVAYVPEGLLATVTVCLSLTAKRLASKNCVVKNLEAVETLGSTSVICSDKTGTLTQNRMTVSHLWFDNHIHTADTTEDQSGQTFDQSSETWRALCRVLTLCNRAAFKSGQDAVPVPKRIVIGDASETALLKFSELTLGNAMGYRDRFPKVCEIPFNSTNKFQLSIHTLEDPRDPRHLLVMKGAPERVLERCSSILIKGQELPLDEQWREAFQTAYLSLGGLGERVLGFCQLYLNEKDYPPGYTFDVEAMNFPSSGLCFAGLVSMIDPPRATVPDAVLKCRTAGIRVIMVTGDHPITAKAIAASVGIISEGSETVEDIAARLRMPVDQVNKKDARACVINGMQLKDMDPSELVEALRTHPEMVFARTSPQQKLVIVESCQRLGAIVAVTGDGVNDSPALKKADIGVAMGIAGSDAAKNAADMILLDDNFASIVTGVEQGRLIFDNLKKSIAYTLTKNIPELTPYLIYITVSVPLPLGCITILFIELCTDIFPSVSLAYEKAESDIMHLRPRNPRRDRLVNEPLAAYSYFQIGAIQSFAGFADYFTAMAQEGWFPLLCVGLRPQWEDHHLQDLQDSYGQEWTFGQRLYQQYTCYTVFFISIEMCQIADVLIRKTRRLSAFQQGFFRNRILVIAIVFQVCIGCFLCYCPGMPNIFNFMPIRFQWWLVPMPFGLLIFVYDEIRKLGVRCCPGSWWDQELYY
Chain of H^+-K^+-ATP enzyme (P18598 whole entry partner): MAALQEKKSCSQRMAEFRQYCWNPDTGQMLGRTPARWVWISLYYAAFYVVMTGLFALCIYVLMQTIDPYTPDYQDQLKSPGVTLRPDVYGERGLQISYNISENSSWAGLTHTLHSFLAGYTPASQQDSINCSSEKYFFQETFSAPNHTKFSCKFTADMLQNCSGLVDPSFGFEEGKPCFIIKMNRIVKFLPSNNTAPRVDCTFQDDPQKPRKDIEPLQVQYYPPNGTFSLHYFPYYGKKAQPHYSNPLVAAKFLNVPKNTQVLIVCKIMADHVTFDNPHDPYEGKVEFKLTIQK

MDA = test: Measurement of MDA (lipid peroxidation, TBARS) in gastric ulcer rats; conditions: 2.7 mg/kg, seven consecutive days, mean ± SD, n = 6
[9] = nominal concentration 10 ng·mL^−1
[10] = nominal concentration 125 ng·mL^−1
[11] = nominal concentration 2000 ng·mL^−1

Stability in dog plasma, 3 Freeze-Thaw Cycles [7, 9]: 9.64
Stability in dog plasma, 45 Days, −20 °C [7, 9]: 9.11
Stability in dog plasma, 10 h, 4 °C [7, 9]: 9.35
Stability in dog plasma, 24 h, Room Temperature [7, 9]: 10.00
Stability in dog plasma, 3 Freeze-Thaw Cycles [7, 10]: 119.79
Stability in dog plasma, 45 Days, −20 °C [7, 10]: 123.82
Stability in dog plasma, 10 h, 4 °C [7, 10]: 124.51
Stability in dog plasma, 24 h, Room Temperature [7, 10]: 132.80
Stability in dog plasma, 3 Freeze-Thaw Cycles [7, 11]: 2128.46
Stability in dog plasma, 45 Days, −20 °C [7, 11]: 1853.17
Stability in dog plasma, 10 h, 4 °C [7, 11]: 2088.22
Stability in dog plasma, 24 h, Room Temperature [7, 11]: 2024.38
SMILES: Cc1c(OCC(F)(F)F)ccnc1C[S+]([O-])c1nc2ccccc2[nH]1 (stereo not drawn) [LSZ, Lansoprazole]
Gastroprotection (%) ([1]; rats, intragastric, 2.7 mg/kg, seven consecutive days): 29.8%
UI ([1]; rats, intragastric, 2.7 mg/kg, seven consecutive days, UI = total area of ulcer, mean ± SD, n = 6): 28.30 ± 7.29
Macroscopic gastric lesions ([1]; treatment with LSZ compared to the model group): significantly reduced
Histological evaluation of gastric mucosa (submucosal edema, epithelial cell loss) [2]: protective effect on gastric mucosa
Expression of VEGF (immunohistochemistry) (VEGF [3]): increased expression
Expression of COX-2 (immunohistochemistry) (COX-2 [4]): increased expression
Expression of VEGF protein (Western blot) (VEGF [5]): significantly increase
Expression of COX-2 protein (Western blot) (COX-2 [6]): significantly increase
Time of peak concentration after oral administration [8]: ≤ 1 ± 2 h
SOD (SOD): 170.12 ± 13.19 μmol*g^−1 Pro
H^+-K^+-ATP enzyme activity (H^+-K^+-ATP enzyme): 7.91 ± 0.76 mmol/g/h
MDA (MDA): 75.32 ± 10.77 μmol*g^−1 Pro
